Read-outs that look alike come from different tables or passages of the source.
Assays:
[1] = test system: PAXF1657 control empty vector cell line; test: 7-day proliferation assay, PAXF1657 control empty vector cell line (Example 9); format: cell-based; details: 168 h; Cell Line: PAXF1657 empty vector (EV) cell line; 7-day; read-out: C: 7-day proliferation assay: IC50 GeoMean
In short: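 Viability by CellTiter-Glo after 7 days at 37° C., with compound-containing media replaced on day 3. Cells (500/well, RPMI1640 + 10% FBS) were PAXF1657 pairs: GRK2 overexpression vs empty vector, or CRISPR GRK2 knockout vs non-targeting clones; doses 30 μM-0.0002 μM final, 10 points, 0.3% DMSO.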

GRK2 = target: T1, GRK2 (Homo sapiens, UniProt P25098); test: GRK2 Inhibition Assay (TR-FRET, Example 7); format: biochemical
T1 construct: purchased SignalChem A14-10G
T1 sequence (P25098 1-689): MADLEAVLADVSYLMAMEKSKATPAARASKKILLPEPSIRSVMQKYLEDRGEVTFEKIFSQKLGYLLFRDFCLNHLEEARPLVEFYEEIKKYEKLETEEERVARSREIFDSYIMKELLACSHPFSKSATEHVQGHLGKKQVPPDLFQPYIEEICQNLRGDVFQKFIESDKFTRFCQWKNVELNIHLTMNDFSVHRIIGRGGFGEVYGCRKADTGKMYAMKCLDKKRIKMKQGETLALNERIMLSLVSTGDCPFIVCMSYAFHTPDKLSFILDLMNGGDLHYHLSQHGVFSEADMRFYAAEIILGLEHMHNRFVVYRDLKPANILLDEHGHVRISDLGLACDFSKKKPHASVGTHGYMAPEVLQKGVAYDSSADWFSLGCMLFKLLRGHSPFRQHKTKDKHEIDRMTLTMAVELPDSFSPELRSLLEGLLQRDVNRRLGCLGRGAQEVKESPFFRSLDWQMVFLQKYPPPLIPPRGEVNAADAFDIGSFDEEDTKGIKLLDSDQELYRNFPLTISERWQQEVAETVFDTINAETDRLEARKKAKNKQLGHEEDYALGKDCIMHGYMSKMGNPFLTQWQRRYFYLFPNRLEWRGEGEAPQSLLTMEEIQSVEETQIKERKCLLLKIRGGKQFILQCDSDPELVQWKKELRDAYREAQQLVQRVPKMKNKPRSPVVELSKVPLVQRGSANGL
Experimental: Enzyme GRK2 (1 nM final concentration) was diluted in 25 mMv HEPES, 10 mM MgCl2, 2 mM DTT, 0.01% Tween-20, and 1 mM EGTA. Then the GRK2 mixture was added into ProxiPlate-384 white plate and pre-incubated for 30 min with test compounds at room temperature. ATP (7 μM final concentration) and Ulight TopoIIα (50 nM final concentration) were added into the assay plate to initiate the reaction and the mixture was incubated at room temperature for 90 min. Then, Eu anti-TopoIIα (0.12 nM final concentration), BSA (0.01% final concentration), and EDTA (11 mMv final concentration) in LANCE assay buffer were added into each well. After 60 min incubation time at room temperature, TR-FRET signal was measured by EnVision plate reader.

[2] = Enzyme Assay B, TR-FRET (Example 7), read-out: B: Enzymatic GRK2: IC50 (nM) (Example 7)
[3] = TR-FRET GRK2 enzyme assay, read-out: B: Enzymatic GRK2: IC50 (nM) (Example 7)

| IC50 (GRK2; [2]) | IC50 (GRK2; [3]) | Compound | IC50 [1] | IC50 (GRK2) |
| --- | --- | --- | --- | --- |
| 5.3 nM | – | CCCn1c(CNc2cccc(C(=O)NCc3cccc(F)c3)c2)nnc1-c1ccncn1 | 19.2 µM | – |
| 18 nM | – | Cn1c(CNc2cccc(C(=O)N[C@H]3CCOc4cc(Cl)ccc43)c2)nnc1-c1ccncn1 | > 29.4 µM | – |
| 2.9 nM | – | Cn1c(CNc2cccc(C(=O)N[C@@H]3CCOc4ccc(Cl)cc43)c2)nnc1-c1ccncn1 | 0.0339 µM | – |
| 120 nM | – | Cn1c(CNc2cccc(C(=O)N[C@H]3CCOc4ccc(Cl)cc43)c2)nnc1-c1ccncn1 | > 30 µM | – |
| 3.3 nM | – | Cn1c(CNc2cccc(C(=O)N[C@@H]3CCOc4c3ccc(F)c4F)c2)nnc1-c1ccncn1 | 0.178 µM | – |
| 1500 nM | – | Cn1c(CNc2cccc(C(=O)N[C@H]3CCOc4c3ccc(F)c4F)c2)nnc1-c1ccncn1 | > 30 µM | – |
| 1900 nM | – | Cn1c(CNc2cccc(C(=O)N[C@@H]3CCOc4cc(F)ccc43)c2)nnc1-c1ccncn1 | 0.168 µM | – |
| 6.4 nM | – | Cn1c(CNc2cccc(C(=O)N[C@H]3CCOc4cc(F)ccc43)c2)nnc1-c1ccncn1 | > 30 µM | – |
| 2 nM | – | Cn1c(CNc2cccc(C(=O)N[C@@H]3CCOc4ccc(F)cc43)c2)nnc1-c1ccncn1 | 0.0962 µM | – |
| 24 nM | – | Cn1c(CNc2cccc(C(=O)N[C@H]3CCOc4ccc(F)cc43)c2)nnc1-c1ccncn1 | > 30 µM | – |
| – | 7.8 nM | Cn1c(CNc2cccc(C(=O)N[C@H]3COc4c(Cl)cccc43)c2)nnc1-c1ccncn1 | – | – |
| – | 28 nM | Cn1c(CNc2cccc(C(=O)N[C@@H]3COc4c(Cl)cccc43)c2)nnc1-c1ccncn1 | – | – |
| – | 5.7 nM | Cn1c(CNc2cccc(C(=O)N[C@H](C#N)c3c(F)cccc3Cl)c2)nnc1-c1ccncn1 | – | – |
| – | 5.1 nM | Cn1c(CNc2cccc(C(=O)N[C@@H](C#N)c3c(F)cccc3Cl)c2)nnc1-c1ccncn1 | – | – |
| – | 4.1 nM | Cn1c(CNc2cccc(C(=O)N[C@@H](C#N)c3ccccc3Br)c2)nnc1-c1ccncn1 | – | – |
| – | 4.5 nM | Cn1c(CNc2cccc(C(=O)N[C@H](C#N)c3ccccc3Br)c2)nnc1-c1ccncn1 | – | – |
| – | 3.5 nM | Cn1c(CNc2cccc(C(=O)N[C@@H](C#N)c3ccccc3C(F)(F)F)c2)nnc1-c1ccncn1 | – | – |
| – | 68 nM | COc1ccc([C@H](C#N)NC(=O)c2cccc(NCc3nnc(-c4ccncn4)n3C)c2)c(OC)c1 | – | – |
| – | 7.8 nM | COc1ccc([C@@H](C#N)NC(=O)c2cccc(NCc3nnc(-c4ccncn4)n3C)c2)c(OC)c1 | – | – |
| – | 100 nM | COc1ccccc1[C@H](NC(=O)c1cccc(NCc2nnc(-c3ccncn3)n2C)c1)c1nccn1C | – | – |
| – | 3.4 nM | Cn1c(CNc2cccc(C(=O)N[C@H]3COc4ccccc43)c2)nnc1-c1ccncn1 [drawing 850] | – | – |

The next lines start with the molecule.

| Compound | IC50 (GRK2; [2]) | IC50 (GRK2; [3]) | IC50 [1] | IC50 (GRK2) |
| --- | --- | --- | --- | --- |
| CCCn1c(CNc2cncc(C(=O)NCc3ccccc3C(F)(F)F)c2)nnc1-c1ccncn1 | 30 nM | – | > 30 µM | – |
| O=C(NCc1cccc(OS(=O)(=O)F)c1)c1cccc(NCc2nnc(-c3ccncc3)[nH]2)c1 | – | – | > 30 µM | 26 nM |
| O=C(NCc1ccccc1OS(=O)(=O)F)c1cccc(NCc2nnc(-c3ccncc3)[nH]2)c1 | – | – | 7.64 µM | 12 nM |
| O=C(NCCc1ccccc1OS(=O)(=O)F)c1cccc(NCc2nnc(-c3ccncc3)[nH]2)c1 | – | – | 13.1 µM | 73 nM |
| O=C(NCc1ccc(OS(=O)(=O)F)cc1)c1cccc(NCc2nnc(-c3ccncc3)[nH]2)c1 | – | – | > 30 µM | 20 nM |
| COc1ncccc1CNC(=O)c1cccc(NCc2nnc(-c3ccncc3)n2C)c1 | 15 nM | – | 0.81 µM | – |
| O=C(NCc1cccc2c1OCC2)c1cccc(NCc2nnc(-c3ccncc3)[nH]2)c1 | 2.9 nM | – | > 30 µM | – |
| O=C(NCc1cccc(F)c1)c1cccc(NCc2nnc(-c3ccncc3)[nH]2)c1 | 6.1 nM | – | 14.5 µM | – |
| O=C(N[C@H]1CCOc2ccccc21)c1cccc(NCc2nnc(-c3ccncc3)[nH]2)c1 | 2.1 nM | – | > 1.76 µM | – |
| O=C(NCc1cccnc1C(F)(F)F)c1cccc(NCc2nnc(-c3ccncc3)[nH]2)c1 | 13 nM | – | > 30 µM | – |
| COc1ccc(CNC(=O)c2cccc(NCc3nnc(-c4ccncc4)[nH]3)c2)c(F)c1 | 15 nM | – | 18.8 µM | – |
| COc1cccc(OC)c1CNC(=O)c1cccc(NCc2nnc(-c3ccncc3)[nH]2)c1 | 1.4 nM | – | 0.981 µM | – |
| CCCn1c(CNc2cccc(C(=O)NCc3cccc4c3OCC4)c2)nnc1-c1ccncn1 | 2 nM | – | > 30 µM | – |
| CCCn1c(CNc2cccc(C(=O)N[C@H]3CCOc4ccccc43)c2)nnc1-c1ccncn1 | 2.3 nM | – | > 30 µM | – |
| CCCn1c(CNc2cccc(C(=O)NCc3cccnc3C(F)(F)F)c2)nnc1-c1ccncn1 | 2.6 nM | – | 0.667 µM | – |
| CCCn1c(CNc2cccc(C(=O)NCc3ccc(OC)cc3F)c2)nnc1-c1ccncn1 | 2.1 nM | – | > 30 µM | – |
| CCCn1c(CNc2cccc(C(=O)NCc3c(OC)cccc3OC)c2)nnc1-c1ccncn1 | 3.1 nM | – | > 30 µM | – |
| CCCn1c(CNc2cccc(C(=O)NCc3ccccc3OCC)c2)nnc1-c1ccncn1 | 8.2 nM | – | > 30 µM | – |
| CCc1cnccc1CNC(=O)c1cccc(NCc2nnc(-c3ccncn3)n2CCO)c1 | 0.82 nM | – | – | – |
| CCc1cnccc1CNC(=O)c1cccc(NCc2nnc(-c3ccncn3)n2CCCO)c1 | 5.5 nM | – | – | – |
| CCc1cnccc1CNC(=O)c1ccnc(NCc2nnc(-c3ccncn3)n2C)c1 | 15 nM | – | – | – |

| Compound | IC50 (GRK2; [2]) | IC50 (GRK2; [3]) | IC50 [1] | IC50 (GRK2) |
| --- | --- | --- | --- | --- |
| Cn1c(CNc2cc(C(=O)NCc3cccc4c3OCC4)ccn2)nnc1-c1ccncn1 | 12 nM | – | – | – |
| O=C(NC1(c2ccccc2)CCOCC1)c1cccc(NCc2nnc(-c3ccncn3)n2CCO)c1 | 6.3 nM | – | – | – |
| COc1ncccc1CNC(=O)c1cccc(NCc2nnc(-c3ccncn3)n2CCO)c1 | 2.4 nM | – | – | – |
| CNCCCn1c(CNc2cccc(C(=O)NCc3cccnc3C(F)(F)F)c2)nnc1-c1ccncn1 | 280 nM | – | – | – |
| O=C(NCc1ccccc1OS(=O)(=O)F)c1cccc(NCc2nnc(-c3ccncc3)n2CCCO)c1 | – | – | > 30 µM | 17 nM |
| O=C(NCc1cccc(OS(=O)(=O)F)c1)c1cccc(NCc2nnc(-c3ccncc3)n2CCCO)c1 | – | – | > 30 µM | 50 nM |
| Cc1ccc2c(c1)[C@H](NC(=O)c1cccc(NCc3nnc(-c4ccncn4)n3C)c1)CC(C)(C)O2 | 48 nM | – | > 30 µM | – |
| Cc1ccc2c(c1)[C@@H](NC(=O)c1cccc(NCc3nnc(-c4ccncn4)n3C)c1)CC(C)(C)O2 | 240 nM | – | > 30 µM | – |
| Cn1c(CNc2cccc(C(=O)N[C@@H]3CCOc4ccc(Br)cc43)c2)nnc1-c1ccncn1 | 510 nM | – | > 30 µM | – |
| Cn1c(CNc2cccc(C(=O)N[C@H]3CCOc4ccc(Br)cc43)c2)nnc1-c1ccncn1 | 2.6 nM | – | 0.0426 µM | – |
| Cn1c(CNc2cccc(C(=O)N[C@@H]3CC(C)(C)Oc4ccccc43)c2)nnc1-c1ccncn1 | 45 nM | – | 9.09 µM | – |
| Cn1c(CNc2cccc(C(=O)N[C@H]3CC(C)(C)Oc4ccccc43)c2)nnc1-c1ccncn1 | 30 nM | – | > 30 µM | – |
| Cn1c(CNc2cccc(C(=O)N[C@@H]3CCOc4c3cccc4C(F)(F)F)c2)nnc1-c1ccncn1 | 3.8 nM | – | > 0.972 µM | – |
| Cn1c(CNc2cccc(C(=O)N[C@H]3CCOc4c3cccc4C(F)(F)F)c2)nnc1-c1ccncn1 | 9.7 nM | – | > 30 µM | – |
| Cn1c(CNc2cccc(C(=O)N[C@@H]3CCOc4cc(C(F)(F)F)ccc43)c2)nnc1-c1ccncn1 | 56 nM | – | 0.0932 µM | – |
| CCc1cnccc1CNC(=O)c1cccc(NCc2nnc(-c3ccncn3)n2[C@H]2CCC[C@@H](NC)C2)c1 | – | 3900 nM | – | – |
| CCc1cnccc1CNC(=O)c1cccc(NCc2nnc(-c3ccncn3)n2[C@@H]2CCC[C@@H](NC)C2)c1 | – | 1000 nM | – | – |
| CCc1cnccc1CNC(=O)c1cccc(NCc2nnc(-c3ccncn3)n2[C@H]2CC[C@@H](NC)C2)c1 | – | 190 nM | – | – |
| CCc1cnccc1CNC(=O)c1cccc(NCc2nnc(-c3ccncn3)n2[C@H]2CC[C@H](NC)C2)c1 | – | 920 nM | – | – |
| CCc1cnccc1CNC(=O)c1cccc(NCc2nnc(-c3ccncn3)n2[C@@H]2CC[C@@H](NC)C2)c1 | – | 230 nM | – | – |
| CCc1cnccc1CNC(=O)c1cccc(NCc2nnc(-c3ccncn3)n2[C@@H]2CC[C@H](NC)C2)c1 | – | 110 nM | – | – |
